In one test the test system is SK-MEL-28. Kind of test: Cytotoxicity against human SK-MEL-28 cells assessed as reduction in cell viability by MTT assay. The format is functional, cell-based.
In a further test the test system is A-375. Kind of test: Cytotoxicity against human A-375 cells assessed as reduction in cell viability by MTT assay. The format is functional, cell-based.
A further test deals with T47D. Description: Cytotoxicity against human T47D cells assessed as cell viability at 10 uM incubated for 48 hrs by sulforhodamine B assay relative to control. The format is functional. The settings on record: read-out: Activity. On the technique in general: The SRB assay estimates cell density from bound dye.
A further test concerns MCF7. Kind of test: Cytotoxicity against human MCF7 cells assessed as cell viability at 10 uM incubated for 48 hrs by sulforhodamine B assay relative to control. The format is functional. To be noted: read-out: Activity.
A further test concerns PC-3. Kind of test: Cytotoxicity against human PC-3 cells assessed as cell viability at 10 uM incubated for 48 hrs by sulforhodamine B assay relative to control. The format is functional. To be noted: read-out: Activity.
In another test the test system is UO-31. Description: Cytotoxicity against human UO-31 cells assessed as cell viability at 10 uM incubated for 48 hrs by sulforhodamine B assay relative to control. The format is functional. To be noted: read-out: Activity.
The next test has as its system OVCAR-5. Kind of test: Cytotoxicity against human OVCAR-5 cells assessed as cell viability at 10 uM incubated for 48 hrs by sulforhodamine B assay relative to control. The format is functional. To be noted: read-out: Activity.
The subject of the next test is OVCAR-4. Description: Cytotoxicity against human OVCAR-4 cells assessed as cell viability at 10 uM incubated for 48 hrs by sulforhodamine B assay relative to control. The settings on record: read-out: Activity. The format is functional.
The subject of another test is IGROV-1. Kind of test: Cytotoxicity against human IGROV-1 cells assessed as cell viability at 10 uM incubated for 48 hrs by sulforhodamine B assay relative to control. The format is functional. The settings on record: read-out: Activity.
The test system of a further test is SK-MEL-5. Kind of test: Cytotoxicity against human SK-MEL-5 cells assessed as cell viability at 10 uM incubated for 48 hrs by sulforhodamine B assay relative to control. The settings on record: read-out: Activity. The format is functional.
The subject of the next test is SK-MEL-2. Kind of test: Cytotoxicity against human SK-MEL-2 cells assessed as cell viability at 10 uM incubated for 48 hrs by sulforhodamine B assay relative to control. To be noted: read-out: Activity. The format is functional.
Another test relates to HL-60(TB). Kind of test: Cytotoxicity against human HL-60(TB) cells assessed as cell viability at 10 uM incubated for 48 hrs by sulforhodamine B assay relative to control. The format is functional. The settings on record: read-out: Activity.
The test system of the next test is K562. Kind of test: Cytotoxicity against human K562 cells assessed as cell viability at 10 uM incubated for 48 hrs by sulforhodamine B assay relative to control. The format is functional. The settings on record: read-out: Activity.
A further test has as its system MOLT-4. Description: Cytotoxicity against human MOLT-4 cells assessed as cell viability at 10 uM incubated for 48 hrs by sulforhodamine B assay relative to control. The format is functional. To be noted: read-out: Activity.
In the next test the test system is RPMI-8226. Description: Cytotoxicity against human RPMI-8226 cells assessed as cell viability at 10 uM incubated for 48 hrs by sulforhodamine B assay relative to control. The format is functional. To be noted: read-out: Activity.
A further test relates to A549. Description: Cytotoxicity against human A549 cells assessed as cell viability at 10 uM incubated for 48 hrs by sulforhodamine B assay relative to control. The settings on record: read-out: Activity. The format is functional.
The next test concerns EKVX. Kind of test: Cytotoxicity against human EKVX cells assessed as cell viability at 10 uM incubated for 48 hrs by sulforhodamine B assay relative to control. The settings on record: read-out: Activity. The format is functional.
For another test, the system named is HOP-62. Kind of test: Cytotoxicity against human HOP-62 cells assessed as cell viability at 10 uM incubated for 48 hrs by sulforhodamine B assay relative to control. The format is functional. The settings on record: read-out: Activity.
The next test has as its system HCC 2998. Kind of test: Cytotoxicity against human HCC 2998 cells assessed as cell viability at 10 uM incubated for 48 hrs by sulforhodamine B assay relative to control. The format is functional. The settings on record: read-out: Activity.
For another test, the system named is SF-539. Description: Cytotoxicity against human SF-539 cells assessed as cell viability at 10 uM incubated for 48 hrs by sulforhodamine B assay relative to control. The format is functional. To be noted: read-out: Activity.
The test system of a further test is SNB-19. Description: Cytotoxicity against human SNB-19 cells assessed as cell viability at 10 uM incubated for 48 hrs by sulforhodamine B assay relative to control. The format is functional. The settings on record: read-out: Activity.

On to `O=S(=O)(NCCNc1nccc(-c2c(-c3cccc(F)c3)nc3sccn23)n1)c1ccc(Cl)cc1`, for which the IC50 in the test with SK-MEL-28 and in the test on A-375 was 18.6 µM each time. In addition, the viability at 10 µM in the test with T47D amounted to 43.2%; with MCF7, 24.7%; in the test with PC-3 it was 56.9%; in the test on UO-31, 23.9%; in the test with OVCAR-5 it was 93.3%; in the test on OVCAR-4 it was 63.6%. For the same molecule, the viability at 10 µM was found to be 15.8% in the test on IGROV-1; 36.5% with SK-MEL-5; 79.8% in the test with SK-MEL-2; 96% in the test on HL-60(TB); 41.3% in the test with K562; 46.8% in the test on MOLT-4. Moreover, the viability at 10 µM in the test on RPMI-8226 was 59.5%; in the test on A549, 32.1%; with EKVX, 66.3%; in the test on HOP-62, 82.6%; in the test on HCC 2998, 83.4%; in the test on SF-539, 82.5%. Further, the viability at 10 µM with SNB-19 came to 66.5%.

For the molecule `O=S(=O)(NCCNc1nccc(-c2c(-c3cccc(F)c3)nc3sccn23)n1)c1cccc(F)c1`, the IC50 (as a rule, the concentration that inhibits the measured activity by half) in the test with SK-MEL-28 was 18.3 µM; with A-375 it was 14.9 µM. The viability at 10 µM came out at 49.1% in the test on T47D; 30.8% in the test on MCF7; 67.2% in the test on PC-3; 30.2% in the test on UO-31; 100% in the test with OVCAR-5; 64.8% in the test on OVCAR-4. The viability at 10 µM with IGROV-1 stood at 24.6%; in the test with SK-MEL-5, 53.5%; with SK-MEL-2, 81.8%; in the test with HL-60(TB), 101%; in the test with K562 it was 48.6%; in the test with MOLT-4, 57.8%. Further, the viability at 10 µM in the test with RPMI-8226 was found to be 66.8%; with A549 it was 42.1%; in the test on EKVX it was 72.1%; with HOP-62, 83.5%; in the test on HCC 2998, 95.5%; in the test with SF-539, 95.6%. Further, the viability at 10 µM in the test with SNB-19 worked out at 73%.

Consider `O=C(NCCNc1nccc(-c2c(-c3cccc(F)c3)nc3sccn23)n1)c1ccc(C(F)(F)F)cc1`, for which the IC50 amounted to 9.26 µM with SK-MEL-28 and 8.71 µM with A-375. Also, the viability at 10 µM in the test with T47D was determined as 43%; with MCF7, 46.3%; in the test on PC-3 it was 61%; with UO-31, 34.5%; with OVCAR-5, 93.5%; with OVCAR-4 it was 81.8%. Also, the viability at 10 µM amounted to 27.8% in the test with IGROV-1; 56.6% with SK-MEL-5; 69% in the test on SK-MEL-2; 103% in the test with HL-60(TB); 61.8% with K562; 50% in the test on MOLT-4. Further, the viability at 10 µM with RPMI-8226 amounted to 52.7%; in the test on A549, 62.1%; in the test with EKVX, 69.1%; with HOP-62 it was 89.9%; in the test with HCC 2998, 100%; in the test with SF-539, 95.7%. Further, the viability at 10 µM in the test on SNB-19 is 86.8%.

As to `O=S(=O)(NCCNc1nccc(-c2c(-c3cccc(F)c3)nc3sccn23)n1)c1ccc(Br)cc1`, the IC50 in the test with SK-MEL-28 and in the test on A-375 was 13.5 µM in each case. Moreover, the viability at 10 µM was 30.5% with T47D; 23.5% with MCF7; 51% in the test on PC-3; 21.2% in the test with UO-31; 83.6% with OVCAR-5; 47% in the test on OVCAR-4. In addition, the viability at 10 µM amounted to 8.47% in the test on IGROV-1; 31.5% in the test on SK-MEL-5; 71.7% with SK-MEL-2; 90.5% in the test on HL-60(TB); 38.7% in the test with K562; 35.7% with MOLT-4. The viability at 10 µM in the test on RPMI-8226 was 58%; in the test with A549 it was 34.1%; in the test on EKVX, 59.5%; in the test on HOP-62, 83.3%; in the test on HCC 2998, 79.5%; in the test with SF-539 it was 76.4%. Moreover, the viability at 10 µM in the test on SNB-19 came out at 59.3%.

In the case of `O=S(=O)(NCCNc1nccc(-c2c(-c3cccc(F)c3)nc3sccn23)n1)c1ccc(F)cc1`, the IC50 in the test on SK-MEL-28 and in the test on A-375 was 9.45 µM in each case. In addition, the viability at 10 µM in the test on T47D stood at 40.4%; in the test with MCF7, 22%; in the test on PC-3 it was 51.4%; in the test with UO-31 it was 23.2%; with OVCAR-5, 92.5%; in the test on OVCAR-4, 59.3%. In addition, the viability at 10 µM was 11.3% with IGROV-1; 35.4% in the test on SK-MEL-5; 67.2% with SK-MEL-2; 95.1% in the test with HL-60(TB); 38.8% in the test with K562; 41.1% with MOLT-4. Besides, the viability at 10 µM with RPMI-8226 is 63.4%; in the test with A549, 32.1%; in the test with EKVX, 62.7%; with HOP-62, 80.1%; in the test with HCC 2998 it was 80.8%; with SF-539, 83.2%. Moreover, in the test with SNB-19, the viability at 10 µM came out at 67.4%.

With `O=S(=O)(NCCCNc1nccc(-c2c(-c3cccc(F)c3)nc3sccn23)n1)c1cccc(F)c1`, the concentration for half-maximal inhibition (IC50) stood at 8.55 µM in the test on SK-MEL-28 and 13.7 µM in the test on A-375. Further, the viability at 10 µM was -2.25% in the test with T47D; 33.7% with MCF7; 27.1% with PC-3; 28.2% in the test on UO-31; 110% in the test with OVCAR-5; 26.8% in the test on OVCAR-4. Also, the viability at 10 µM in the test with IGROV-1 worked out at 18.9%; in the test with SK-MEL-5, 13.5%; in the test with SK-MEL-2 it was 47.6%; in the test on HL-60(TB), 40.5%; in the test with K562, 20.1%; in the test on MOLT-4, 9.94%. The viability at 10 µM worked out at 28% in the test with RPMI-8226; 49.3% in the test on A549; 52.4% in the test on EKVX; 61.3% in the test on HOP-62; 99.3% with HCC 2998; 86.4% with SF-539. Besides, the viability at 10 µM in the test on SNB-19 was 76.8%.

As for `O=S(=O)(NCCCNc1nccc(-c2c(-c3cccc(F)c3)nc3sccn23)n1)c1ccc(F)cc1`, the IC50 with SK-MEL-28 was more than 20 µM; with A-375 it was 14.5 µM. Further, the viability at 10 µM in the test on T47D turned out to be 18.6%; in the test on MCF7 it was 70.1%; in the test on PC-3, 58.9%; in the test on UO-31, 38.8%; in the test with OVCAR-5, 130%; with OVCAR-4, 65.7%. Further, the viability at 10 µM with IGROV-1 was 36.9%; in the test on SK-MEL-5 it was 47.3%; with SK-MEL-2 it was 76.6%; in the test on HL-60(TB) it was 103%; in the test with K562, 41.6%; in the test on MOLT-4 it was 47.1%. In addition, the viability at 10 µM with RPMI-8226 was 51%; in the test with A549, 74%; in the test on EKVX it was 80.4%; with HOP-62, 101%; with HCC 2998 it was 116%; in the test on SF-539, 115%. The viability at 10 µM with SNB-19 was found to be 95.9%.

In the case of `O=C(NCCCNc1nccc(-c2c(-c3cccc(F)c3)nc3sccn23)n1)c1ccc(F)cc1`, the IC50 was more than 20 µM with SK-MEL-28 and 14.9 µM in the test on A-375. The viability at 10 µM with T47D was determined as 50.6%; in the test with MCF7, 71.9%; with PC-3, 76.2%; in the test with UO-31 it was 36.9%; in the test with OVCAR-5, 141%; in the test on OVCAR-4, 81.6%. Further, the viability at 10 µM with IGROV-1 is 49.4%; in the test on SK-MEL-5, 67.8%; with SK-MEL-2 it was 95%; with HL-60(TB), 110%; in the test with K562, 75.7%; with MOLT-4, 44.5%. Further, the viability at 10 µM worked out at 87.2% in the test on RPMI-8226; 76.3% in the test with A549; 82% in the test with EKVX; 119% in the test on HOP-62; 112% in the test with HCC 2998; 99.4% in the test with SF-539. Besides, the viability at 10 µM in the test on SNB-19 amounted to 89%.
